In patent US9617602B2, “Methods and compositions for determining resistance to androgen receptor therapy” (Aragon Pharmaceuticals, Inc., priority 2012, dated 2017):

What was measured:
Format in all cases: cell-based, human
LNCaP cells = assay: Transcriptional reporter assay (probasin-luciferase); settings: for Agonist Transcriptional Reporter Assay (% Max Activity): [Antagonists] = 50 μM; for Antagonist Transcriptional Reporter Assay (% Max Activity): [Antagonists] = 50 μM in presence of R1881
Method: (§1) With the exception of the LNCaP/AR(cs)-Luc cells that contain an integrated androgen responsive reporter, cells were transiently transfected using Lipofectin® (Life Technologies) according to the manufacturer's protocol. […] Following transfection, the cells were incubated for 4 hours.
(§2) Following 48 hour incubation the medium was removed and the cells were lysed in 40 μL of lysis buffer (25 mM Tris Phosphate, 2 mM CDTA, 10% Glycerol, 0.5% Triton X-100, 2 mM DTT).

LNCaP/AR(cs) cells = assay: as above; settings: for Agonist Transcriptional Reporter Assay (% Max Activity): [Antagonists] = 50 μM; for Antagonist Transcriptional Reporter Assay (% Max Activity): [Antagonists] = 50 μM in presence of R1881
Method: as §1, §2

LNCaP ARN-509r1 cells = assay: Endogenous gene transcriptional assay (real-time PCR of androgen responsive genes); settings: 1 nM R1881 or 30 μM compound, vehicle=1.00
Method: Total RNA was isolated using the Aurum™ total RNA isolation kit (BIO-RAD, Hercules, Calif.). RNA (1 μg) was reverse transcribed using the iScript cDNA synthesis kit (BIO-RAD, Hercules, Calif.) to produce cDNA. Real-time PCR was performed using the Applied Biosystems 7900HT instrument and SYBR Green PCR Master Mix (Applied Biosystems, Foster City, Calif.). PCR reactions were performed in 6 μL according to the manufacturer's protocol and a thermocycle protocol of 95° C. for 10 minutes followed by 40 cycles of 95° C. for 15 seconds and 58° C. for 1 minute. Androgen responsive gene (PSA, SLUG, TMPRSS2, STEAP4, FKBP5, ORM1, NOV, FASN, NKX3.1, AMIGO2, BDNF, CAMK2N1, HPGD, NCAPD3, PLD1) expression was normalized to GAPDH expression and expressed relative to vehicle treatment of the parental cell line.
Gene expression was normalized to GAPDH as described above.

[1] = tested on: Class 1 resistant cell lines; assay: Transcriptional reporter assay (probasin-luciferase); settings: for Agonist Transcriptional Reporter Assay (% Max Activity) / Antagonist Transcriptional Reporter Assay (% Max Activity): Class 1; for Agonist Transcriptional Reporter Assay (% Max Activity): [Antagonists] = 50 μM; for Antagonist Transcriptional Reporter Assay (% Max Activity): [Antagonists] = 50 μM in presence of R1881; for Antagonist activity in probasin-luciferase reporter, Class 1 resistant cells: decrease in luciferase activity relative to no treatment controls
Method: as §1, §2

Structure (SMILES): CNC(=O)c1ccc(N2C(=S)N(c3cnc(C#N)c(C(F)(F)F)c3)C(=O)C23CCC3)cc1F [ARN-509]
- Agonist Transcriptional Reporter Assay (% Max Activity) (LNCaP cells): + (‘+’ = <5)
- Antagonist Transcriptional Reporter Assay (% Max Activity) (LNCaP cells): + (‘+’ = <5)
- Agonist Transcriptional Reporter Assay (% Max Activity) (LNCaP/AR(cs) cells): + (‘+’ = <5)
- Antagonist Transcriptional Reporter Assay (% Max Activity) (LNCaP/AR(cs) cells): + (‘+’ = <5)
- AMIGO2 gene expression (LNCaP ARN-509r1 cells): 0.62
- BDNF gene expression (LNCaP ARN-509r1 cells): 0.90
- CAM2KN1 gene expression (LNCaP ARN-509r1 cells): 0.37
- FASN gene expression (LNCaP ARN-509r1 cells): 1.04
- FKBP5 gene expression (LNCaP ARN-509r1 cells): 2.58
- HPGD gene expression (LNCaP ARN-509r1 cells): 2.36
- NCAPD3 gene expression (LNCaP ARN-509r1 cells): 1.29
- NKX3.1 gene expression (LNCaP ARN-509r1 cells): 6.54
- NOV gene expression (LNCaP ARN-509r1 cells): 1.40
- ORM1 gene expression (LNCaP ARN-509r1 cells): 15.89
- PLD1 gene expression (LNCaP ARN-509r1 cells): 0.33
- PSA gene expression (LNCaP ARN-509r1 cells): 32.67
- SLUG gene expression (LNCaP ARN-509r1 cells): 4.66
- STEAP4 gene expression (LNCaP ARN-509r1 cells): 3.03
- TMPRSS2 gene expression (LNCaP ARN-509r1 cells): 10.20
- Agonist Transcriptional Reporter Assay (% Max Activity) [1]: + (‘+’ = <5)
- Antagonist Transcriptional Reporter Assay (% Max Activity) [1]: ++ (‘++’ = >5)
- Antagonist activity in probasin-luciferase reporter, Class 1 resistant cells [1]: effective antagonists

Structure (SMILES): CNC(=O)c1ccc(N2C(=S)N(c3ccc(C#N)c(C(F)(F)F)c3)C(=O)C2(C)C)cc1F [Enzalutamide, enzalutamide]
- Agonist Transcriptional Reporter Assay (% Max Activity) (LNCaP cells): + (‘+’ = <5)
- Antagonist Transcriptional Reporter Assay (% Max Activity) (LNCaP cells): + (‘+’ = <5)
- Agonist Transcriptional Reporter Assay (% Max Activity) (LNCaP/AR(cs) cells): + (‘+’ = <5)
- Antagonist Transcriptional Reporter Assay (% Max Activity) (LNCaP/AR(cs) cells): + (‘+’ = <5)
- AMIGO2 gene expression (LNCaP ARN-509r1 cells): 0.99
- CAM2KN1 gene expression (LNCaP ARN-509r1 cells): 0.59
- FASN gene expression (LNCaP ARN-509r1 cells): 1.53
- FKBP5 gene expression (LNCaP ARN-509r1 cells): 9.45
- HPGD gene expression (LNCaP ARN-509r1 cells): 10.20
- NCAPD3 gene expression (LNCaP ARN-509r1 cells): 3.12
- NOV gene expression (LNCaP ARN-509r1 cells): 1.39
- ORM1 gene expression (LNCaP ARN-509r1 cells): 205.07
- PLD1 gene expression (LNCaP ARN-509r1 cells): 0.24
- PSA gene expression (LNCaP ARN-509r1 cells): 57.68
- SLUG gene expression (LNCaP ARN-509r1 cells): 42.52
- STEAP4 gene expression (LNCaP ARN-509r1 cells): 32.22
- TMPRSS2 gene expression (LNCaP ARN-509r1 cells): 23.75
- Agonist Transcriptional Reporter Assay (% Max Activity) [1]: + (‘+’ = <5)
- Antagonist Transcriptional Reporter Assay (% Max Activity) [1]: + (‘+’ = <5)
- Antagonist activity in probasin-luciferase reporter, Class 1 resistant cells [1]: effective antagonists
